Results from US6998143B1, “Ferric fortification system” (Nestec S.A., priority 1999, dated 2006).

Assays:
[1] = tested on: weanling male Sprague-Dawley rats; assay: Iron bioavailability by hemoglobin repletion in anemic rats (slope-ratio); assay type: in vivo, rat
Method: Animals:—The animals used are weanling male Sprague-Dawley rats aged 3 weeks (IFFA-CREDO, L'Arbresle, France).
This diet is casein based and provides for the nutritional requirements of growing rats except for iron.
Diet 1:—The control diet supplemented with the complex of example 2 to provide 10 mg/kg iron.
Diet 2:—The control diet supplemented with the complex of example 2 to provide 20 mg/kg iron.
1) Hemoglobin analysis is performed by anaesthetizing the rats with isoflurane and then drawing a sample of 200 μL of blood from the orbital venous plexus. Blood hemoglobin level in the sample is determined by the cyanmethemoglobin method (Hb kit MPR 3, Bochringer Mannheim GmbH, Germany), using an automated instrument (Hemocue, Baumann-Medical SA, Wetzikon, Switzerland). Commercial quality control blood samples (Dia-HT Kontrollblut, Dia MED, Cressier, Switzerland) having a range of hemoglobin levels are measured with all hemoglobin determinations.
A multiple regression equation relates amounts of iron added to the hemoglobin levels. The equation provides one straight line per diet which intercepts at zero dose.
Procedure:—Rats are housed individually in polycarbonate cages, fitted with stainless steel grids. The animals are allowed free access to distilled water. […] Fresh diet is supplied daily. Spoiling of diet by rats is reduced by covering the diet with a grid.
After 24 days, hemoglobin and weight is determined. Fifty rats with hemoglobin levels between […] are randomized into 5 groups of 10 having approximately equal mean hemoglobin and body weight. Each group of animals is fed one of the experimental diets for 14 days. The rats are fed the diets ad libitum beginning with 20 g/day at day 0. The rats have free access to distilled water. Individual food consumption is measured daily. After 14 days, the rats are weighed and hemoglobin is determined.

[2] = Lipid oxidation induction time in fish oil (Rancimat); assay type: physicochemical; settings: fish oil in place of chicken fat, 100° C.
Method: The powder of example 3 is added to chicken fat to provide 40 mg of iron per 1000 g of fat. As a negative control, ferric sulfate is added to chicken fat to provide the same iron loading. Chicken fat without any added iron is used as a positive control.
The fat samples are heated to 100° C. and the lipid oxidation induction time is determined using a Rancimat. No difference in induction time between the fat fortified with the powder of example 3 and the positive control is determined. The induction time of the negative control is 30 to 40% less.
The procedure of example 8 is repeated except that fish oil is used in place of chicken fat. The results are similar.

[3] = diet with 10 mg/kg added Fe for 14 days
[4] = diet with 20 mg/kg added Fe for 14 days

| Compound | Initial hemoglobin, mean (standard deviation) ([1]; baseline before diet with 10 mg/kg added Fe) | Initial hemoglobin, mean (standard deviation) ([1]; baseline before diet with 20 mg/kg added Fe) | Difference in hemoglobin (final minus initial), mean [1, 3] [g/dL] | Final hemoglobin, mean [1, 3] [g/dL] | Difference in hemoglobin (final minus initial), mean [1, 4] [g/dL] | Final hemoglobin, mean [1, 4] [g/dL] | lipid oxidation induction time results compared with those of example 8 [2] |
| --- | --- | --- | --- | --- | --- | --- | --- |
| O.O.O.O.O.O.O.O=S(=O)([O-])[O-].[Fe+2] [FeSO4.7H2O, ferrous sulfate heptahydrate] | 5.12 (0.41) g/dl | 5.12 (0.40) g/dl | 3.54 | 8.66 | 6.41 | 11.53 | – |
| O=S(=O)([O-])[O-].O=S(=O)([O-])[O-].O=S(=O)([O-])[O-].[Fe+3].[Fe+3] [ferric sulfate] | – | – | – | – | – | – | similar |
